Assay results: US6726908B2, “Pharmaceutical formulation” (SmithKline Beecham p.l.c., priority 1995, dated 2004)
Converted amounts (≈) assume the structure as drawn. Where two headings read alike, the source gives them in different places.

Columns and labels:
Format in all cases: cell-based, Streptococcus pneumoniae
S Pneumoniae 410101 = experiment: MIC against resistant S Pneumoniae strain 410101
S Pneumoniae N1387 = experiment: MIC against resistant S Pneumoniae strain N1387
S Pneumoniae 14319 = experiment: MIC against resistant S Pneumoniae strain 14319
[1] = Streptococcus pneumoniae, read-out: MIC

Structure (SMILES)	MIC (S Pneumoniae 410101; [1]) [µg/mL]	MIC (S Pneumoniae N1387; [1]) [µg/mL]	MIC (S Pneumoniae 14319; [1]) [µg/mL]	MIC (S Pneumoniae 410101) [µg/mL]	MIC (S Pneumoniae N1387) [µg/mL]	MIC (S Pneumoniae 14319) [µg/mL]
CC1(C)S[C@@H]2[C@H](NC(=O)[C@H](N)c3ccc(O)cc3)C(=O)N2[C@H]1C(=O)O [Amoxycillin]	4 (≈ 10.9 µM)	2 (≈ 5.47 µM)	4 (≈ 10.9 µM)	–	–	–
CC1(C)S[C@@H]2[C@H](NC(=O)Cc3ccccc3)C(=O)N2[C@H]1C(=O)O [Penicillin G]	–	–	–	4 (≈ 12 µM)	2 (≈ 5.98 µM)	8 (≈ 23.9 µM)
